In general, pIC50 refers to the negative decadic logarithm of the IC50, by convention in mol/L.

pIC50: −log10 of the molar value. Values joined by “and” are separate entries in the source; they are usually repeats but may differ in a detail not shown here. Equal entries are not always repeated. Structures can show the parent of a compound that is named as a salt. Where two headings read alike, the source gives them in different places.

Assay [1] deals with T1, cdk2/cyclin E (Homo sapiens, UniProt P24941).
T1 construct: made in house; host or cells: insect cells (baculovirus co-infection)
Kind of assay: Cyclin-Dependent Kinase 2 Assay (cdk-2 inhibition). In kind it is biochemical. The settings on record: GST-Rb substrate, 30 min at 30° C. Here is the method:
(§1) The transformed bacteria were grown overnight to saturation, then diluted in YT broth and incubated at 37° C. for 2 h. The protein was induced by incubation with 0.1 mM isopropylthioglycoside for 3 h. Following sedimentation by centrifugation, the cells were lysed by sonication in STE buffer ([…] NaCl, 10 mM Tris, pH 8.0, 1 mM EDTA) containing 10% sarkosyl. Particulate matter was removed by centrifugation and the lysate was incubated with glutathione-Sepharose at 4° C. The beads were washed with kinase buffer and then quantitation of Coomassie blue-stained proteins separated by SDS-PAGE was performed using a protein standard of known concentration.
(§2) Pre-wet Millipore Multiscreen 96-well filter plates (0.65 μm Durapore filters) with 200 μl kinase buffer (50 mM HEPES, pH 7.5, 10 mM MgCl2, 1 mM EGTA). GST-Rb (0.5 μg) bound to glutathione-Sepharose beads is added in 50 μl per well and the solution removed by application of vacuum. […] Add 0.1 μg cdk4/cyclin D1 (insect cell lysate) to initiate assay. Incubate 30 min at 37° C. Terminate reaction by filtration on Millipore Vacuum Manifold. Wash four times with TNEN (20 mM Tris, pH 8.0, 100 mM Na Cl, 1 mM EDTA, 0.5% nonidet P-40). After drying the plates at room temperature, the filter plates were placed in adapter plates (Packard) and 40 μl of Microscint-O® (Packard) was added to each well. Top Seal A film was used to cover the plates before counting in a Top Count Scintillation Counter.
GST-Rb as described above for cdk4/cyclin D1
Assay conditions for cdk2/cyclin E were identical to those for cdk4/cyclin D1 including the substrate. The concentration of recombinant cdk2/cyclin E in the assay was 0.1 μg per 100 μl assay. Incubation was for 30 min at 30° C.

Assay [2] has as its target T2, cdk4/cyclin D1 (Homo sapiens, UniProt P11802).
T2 construct: made in house; host or cells: Sf9 insect cells (Bac-to-Bac baculovirus, pFastBac)
Briefly: Cyclin-dependent kinase 4 Assay. The assay is classed as biochemical. As to conditions: cdk4/cyclin D1, GST-Rb substrate, 10 μM ATP, 30 min at 37° C.; read-out: CDK4 Inhibition IC50. Here is the method: The IC50 values for cdk-4 inhibition were by the following method:
as §1
The cDNA for human cyclin D1 was cloned by RT PCR using […] from MCF-7 cells. […] Bacmid DNA was used to transfect Sf9 insect cells to produce recombinant virus. Following plaque purification of the virus, the viral preparations were amplified until high titer stocks were acheived.
Lysates were prepared by lysis of Sf9 cells coinfected with cdk4 and cyclin D1 in 50 mM HEPES, pH 7.5, 10 mM MgCl2, 1 mM DTT, 0.1 mM phenylmethylsulfonyl fluoride, 5 μg/ml aprotinin, and 5 μg/ml leupeptin using a PARR bomb under 500 p.s.i nitrogen pressure for 5 min at 4° C. Insoluble material was sedimented at 10,000×g for 20 min at 4° C. Glycerol was added to the supernatant to 10% and stored at −80° C. in aliquots.
as §2

In assay [3] the test system is MDA-MB-231. Kind of assay: In vitro tumor cell proliferation, MDA-MB-231. The assay is classed as cell-based, human. As to conditions: read-out: In vitro Tumor Cell Proliferation (IC50, μM) Breast MDA-MB-231. How it is done: (§3) The proliferation of tumor cells was measured using a sulforhodamine B assay as described in Skehan, P., et al., J. Natl. Cancer Inst. […] Tumor cells were harvested with trypsin-EDTA, cells that excluded trypan blue were counted, added to 96-well plates and incubated overnight at 37° C. Drug was added to the wells following dilution in culture medium. Three days later, the medium was removed and replenished with medium containing fresh drug and incubated an additional 4 days. The cells were then fixed with 0.1 ml 10% trichloroacetic acid for 60 min at 4° C. The plates were rinsed five times with tap water, air-dried and stained for 30 min with 0.4% sulforhodamine B in 1% acetic acid and air-dried.
(§4) Alternatively, the CyQUANT cell proliferation assay was used to quantify tumor cell proliferation. Tumor cells were harvested with trypsin-EDTA, cells that excluded trypan blue were counted, added to 96-well plates and incubated overnight at 37° C. Drug was added to the wells following dilution in culture medium. Three days later the medium was removed and the plates frozen at −80° C. for at least 30 minutes.

Assay [4] deals with MDA-MB-435. Kind of assay: In vitro tumor cell proliferation, MDA-MB-435. The assay is classed as cell-based, human. As to conditions: read-out: In vitro Tumor Cell Proliferation (IC50, μM) Breast MDA-MB-435. How it is done:
as §3, §4

In assay [5] the test system is Colo-205. Kind of assay: In vitro tumor cell proliferation, Colo-205. The settings on record: read-out: In vitro Tumor Cell Proliferation (IC50, μM) Colon Colo-205. In kind it is cell-based, human. How it is done: as §3, §4
Assay [6] concerns A549. Briefly: In vitro tumor cell proliferation, A549. In kind it is cell-based, human. The settings on record: read-out: In vitro Tumor Cell Proliferation (IC50, μM) Lung A549. How it is done:
as §3, §4

Assay [7] has as its system DMS-114. Briefly: In vitro tumor cell proliferation, DMS-114. As to conditions: read-out: In vitro Tumor Cell Proliferation (IC50, μM) Lung DMS-114. The assay is classed as cell-based, human. How it is done: as §3, §4
For assay [8], the system named is PC-3. Briefly: In vitro tumor cell proliferation, PC-3. In kind it is cell-based, human. As to conditions: read-out: In vitro Tumor Cell Proliferation (IC50, μM) Prostate PC-3. How it is done: as §3, §4
In assay [9] the test system is DU 145. Briefly: In vitro tumor cell proliferation, DU 145. The settings on record: read-out: In vitro Tumor Cell Proliferation (IC50, μM) Prostate DUI45. In kind it is cell-based, human. How it is done: as §3, §4
The subject of assay [10] is HT-29. Kind of assay: In vitro tumor cell proliferation, HT-29. In kind it is cell-based, human. As to conditions: read-out: In vitro Tumor Cell Proliferation (IC50, μM) Colon HT-29 (converted). Here is the method: as §3, §4
HT-29 is a human colon adenocarcinoma, moderately well-differentiated grade II (HTB 38);

Where [11] appears, read: Homo sapiens, MDA-MB-231, values marked * (mark not explained).
[12] abbreviates: values marked * (mark not explained), dihydrochloride.
Where [13] appears, read: Homo sapiens, MDA-MB-435, values marked * (mark not explained).
Where [14] appears, read: Homo sapiens, COLO 205, values marked * (mark not explained).
Where [15] appears, read: Homo sapiens, A549, values marked * (mark not explained).
Setting [16] is: Homo sapiens, DMS-114, values marked * (mark not explained).
The mark [17] stands for this setting: Homo sapiens, PC-3, values marked * (mark not explained).
Where [18] appears, read: Homo sapiens, DU-145, values marked * (mark not explained).
The mark [19] stands for this setting: Homo sapiens, HT-29, values marked * (mark not explained).

T2 sequence (P11802 whole entry): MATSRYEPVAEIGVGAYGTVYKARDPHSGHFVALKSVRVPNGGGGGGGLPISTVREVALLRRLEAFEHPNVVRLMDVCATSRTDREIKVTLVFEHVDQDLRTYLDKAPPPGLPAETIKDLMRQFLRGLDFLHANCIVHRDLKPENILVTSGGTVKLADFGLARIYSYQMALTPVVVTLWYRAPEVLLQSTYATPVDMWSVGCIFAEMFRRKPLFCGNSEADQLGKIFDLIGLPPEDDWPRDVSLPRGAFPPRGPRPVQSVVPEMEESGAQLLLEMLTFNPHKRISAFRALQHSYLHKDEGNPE
T2 sequence (P24385 whole entry partner): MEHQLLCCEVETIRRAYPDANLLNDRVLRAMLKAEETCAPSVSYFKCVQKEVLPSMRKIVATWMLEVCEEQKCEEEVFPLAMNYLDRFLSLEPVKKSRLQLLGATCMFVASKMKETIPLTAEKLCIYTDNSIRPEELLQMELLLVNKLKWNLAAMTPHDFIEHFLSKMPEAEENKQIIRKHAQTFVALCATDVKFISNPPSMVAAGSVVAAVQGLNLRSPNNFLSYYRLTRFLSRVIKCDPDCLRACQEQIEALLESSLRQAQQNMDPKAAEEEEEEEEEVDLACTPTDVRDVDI

For the molecule `N[C@H]1CC[C@H](Nc2nc(NCCc3cccnc3)c3ncn(C4CCCC4)c3n2)CC1` [Example 7, 2-[Trans-(4-aminocyclohexyl)amino]-6-[(3-pyridyl)-2-ethylamino]-9-cyclopentylpurine dihydrochloride], the pIC50 in assay [1] was 7.22; in [2], 6.52. Moreover, the IC50 in assay [3] (setting [11]) worked out at 7.9 µM; in [3] (setting [12]) it was 7 µM; in [4] (setting [13]), 11 µM; in [5] (setting [14]), 6.3 µM; in [5] (setting [12]), 7.8 µM; in assay [6] (setting [15]), 15 µM. In addition, the IC50 in [7] (setting [16]) is 16 µM; in assay [7] (setting [12]) it was 24 µM; in assay [8] (setting [17]), 8 µM; in [8] (setting [12]), 4.6 µM; in [9] (setting [18]), 10 µM; in assay [9] (setting [12]), 9 µM.

`CCCCCNc1nc(N[C@H]2CC[C@H](N)CC2)nc2c1ncn2C1CCCC1` [Example 26, 2-[Trans-(4-aminocyclohexyl)amino]-6-(pentylamino)-9-cyclopentylpurine dihydrochloride]: the pIC50 is 7.10 and 7.44 in assay [1]; 6.29 and 6.34 in assay [2]. In addition, the IC50 was 1.2 µM in [3] (setting [11]); 1.4 µM in assay [3] (setting [12]); 2.2 µM in [4] (setting [13]); 2.3 µM in [4] (setting [12]); 1.4 µM in assay [10] (setting [19]); 1.6 µM in assay [10] (setting [12]). The IC50 in assay [5] (setting [14]) was found to be 1.3 µM; in assay [5] (setting [12]), 1.5 µM; in [7] (setting [16]), 1.8 µM; in assay [7] (setting [12]) it was 1 µM; in [8] (setting [17]), 1 µM; in assay [8] (setting [12]) it was 1.4 µM. Also, the figures for the IC50 in assay [9] (setting [18]) and in [9] (setting [12]) were 0.73 µM and 0.95 µM, respectively.

Consider `N[C@H]1CC[C@H](Nc2nc(NNCCO)c3ncn(C4CCCC4)c3n2)CC1` [Example 14, 2-[Trans-(4-aminocyclohexyl)amino]-6-[2-hydroxyethylhydrazino]-9-cyclopentylpurine dihydrochloride], for which the negative-log IC50 (pIC50) in assay [1] is 7.34; in assay [2], 7.24 and 7.17. Moreover, the IC50 in assay [3] (setting [11]) was 19 µM; in assay [3] (setting [12]), 22 µM; in [4] (setting [13]), 44 µM; in assay [4] (setting [12]) it was 27 µM; in assay [10] (setting [19]) it was 34 µM; in assay [10] (setting [12]), 29 µM. The IC50 in [5] (setting [14]) worked out at 17 µM; in [5] (setting [12]), 16 µM; in assay [6] (setting [15]) it was 24 µM; in [6] (setting [12]), 15 µM; in [7] (setting [16]), 22 µM; in assay [7] (setting [12]), 20 µM. The IC50 in assay [9] (setting [18]) is 17 µM; in assay [9] (setting [12]), 21 µM.

As to `N[C@H]1CC[C@H](Nc2nc(NCCc3c[nH]c4ccccc34)c3ncn(C4CCCC4)c3n2)CC1` [Example 2, 2-[Trans-(4-aminocyclohexyl)amino]-6-[(3-indolyl)-2-ethylamino]-9-cyclopentylpurine dihydrochloride], the pIC50 was 6.85 in [1]; 6.22 and 6.05 in assay [2]. In addition, the IC50 in assay [3] (setting [11]) was 6.5 µM; in [3] (setting [12]) it was 6.6 µM; in assay [4] (setting [12]) it was 11 µM; in [10] (setting [19]) it was 10 µM; in [5] (setting [14]) it was 11 µM; in [5] (setting [12]), 8.6 µM. Further, the IC50 in assay [6] (setting [15]) came out at 11 µM; in assay [7] (setting [16]), 8.7 µM; in [7] (setting [12]), 10 µM; in assay [9] (setting [18]), 12 µM; in [9] (setting [12]), 6.7 µM.

In the case of `N[C@H]1CC[C@H](Nc2nc(NCc3nc4ccccc4[nH]3)c3ncn(C4CCCC4)c3n2)CC1` [Example 19, 2-[Trans-(4-aminocyclohexyl)amino]-6-[(2-benzimidazolyl)methylamino]-9-cyclopentylpurine dihydrochloride], the pIC50 in assay [1] is 6.46; in [2], 7.30 and 7.00. In addition, the IC50 in assay [3] (setting [11]) was 1.9 µM; in assay [3] (setting [12]) it was 1.7 µM; in assay [4] (setting [13]) it was 2.7 µM; in [4] (setting [12]) it was 2.3 µM; in [10] (setting [19]), 2.7 µM; in [10] (setting [12]), 2 µM. In addition, the IC50 in [5] (setting [14]) came to 1.3 µM; in assay [5] (setting [12]) it was 1.4 µM; in assay [7] (setting [16]), 2.7 µM; in [7] (setting [12]), 2.9 µM; in assay [8] (setting [17]), 1.2 µM; in assay [8] (setting [12]), 1.5 µM. The values for the IC50 in assay [9] (setting [18]) and in [9] (setting [12]) were 6.4 µM and 6.1 µM, respectively.

Consider `N[C@H]1CC[C@H](Nc2nc(NCCc3ccccn3)c3ncn(C4CCCC4)c3n2)CC1` [Example 12, 2-[Trans-(4-aminocyclohexyl)amino]-6-[2-(2-pyridyl)ethylamino]-9-cyclopentylpurine dihydrochloride], for which the pIC50 in [1] is 6.66; in assay [2], 6.52 and 6.70. Further, the IC50 was 6 µM in [3] (setting [11]); 8.7 µM in [4] (setting [13]); 9.4 µM in [4] (setting [12]); 11 µM in assay [10] (setting [19]); 12 µM in [10] (setting [12]); 6.4 µM in [5] (setting [14]). Moreover, the IC50 is 6.2 µM in assay [5] (setting [12]); 15 µM in assay [7] (setting [16]); 11 µM in [7] (setting [12]); 7.9 µM in assay [8] (setting [17]); 6.1 µM in assay [8] (setting [12]); 10 µM in assay [9] (setting [18]).
